Drawing on patent US20250051356A1, “RIFABUTIN ANALOGS FOR THE TREATMENT OF DISEASE” (priority 2021, published 2025), this text covers MIC for 18 molecules.

Holding throughout (type): cell-based
The test system of experiment [1] is S. aureus (UAMS-1625 strain). The experiment in a line: MIC by broth microdilution against S. aureus. The settings on record: Staphylococcus aureus, read-out: MIC S. aureus. (In general: Broth dilution looks for growth in wells or tubes with falling amounts of substance.)
For experiment [2], the system named is A. baumannii (HUMC1 strain). Description: MIC by broth microdilution against A. baumannii in RPMI + 10% FCS. The note with it: Acinetobacter baumannii; HUMC1 strain; RPMI + 10% FCS; read-out: MIC A. baumannii.
Experiment [3] has as its system M. abscessus subsp. abscessus ATCC 19977. Description: MIC against M. abscessus in Middlebrook 7H9 + ADC. The note with it: Mycobacteroides abscessus, ATCC19977; ATCC 19977; 7H9 + ADC; read-out: MIC M. abscessus.

Values after ≈ are worked out from the molar mass of the structure shown.

One may read the MIC as the least concentration at which growth counts as inhibited. For `CO[C@H]1/C=C/O[C@@]2(C)Oc3c(C)c(O)c4c(c3C2=O)C2=NC3(CCN(CC(C)C)CC3)NC2=C(NC(=O)/C(C)=C\C=C\[C@H](C)[C@H](O)[C@@H](C)[C@@H](O)[C@@H](C)[C@H](OC(=O)CC(=O)NCC2CCN(C)CC2)[C@@H]1C)C4=O` [Compound 5], the minimum inhibitory concentration (MIC) in experiment [1] was 0.125 µg/mL (≈ 0.125 µM); in experiment [2], no more than 0.002 µg/mL; in experiment [3], 1 µg/mL.
Taken in the same sequence, the figures for `CO[C@H]1/C=C/O[C@@]2(C)Oc3c(C)c(O)c4c(c3C2=O)C2=NC3(CCN(CC(C)C)CC3)NC2=C(NC(=O)/C(C)=C\C=C\[C@H](C)[C@H](O)[C@@H](C)[C@@H](O)[C@@H](C)[C@H](OC(=O)CC(=O)NC2CCN(C)CC2)[C@@H]1C)C4=O` [Compound 6] were 0.03 µg/mL (≈ 0.0304 µM), no more than 0.002 µg/mL and 1 µg/mL.
As to `CO[C@H]1/C=C/O[C@@]2(C)Oc3c(C)c(O)c4c(c3C2=O)C2=NC3(CCN(CC(C)C)CC3)NC2=C(NC(=O)/C(C)=C\C=C\[C@H](C)[C@H](O)[C@@H](C)[C@@H](O)[C@@H](C)[C@H](OC(=O)CC(=O)N2CCC(N(C)C)CC2)[C@@H]1C)C4=O` [Compound 7], the values for the MIC in experiment [1], in experiment [2] and in experiment [3] were 0.016 µg/mL (≈ 0.016 µM), no more than 0.002 µg/mL and 1 µg/mL, respectively.
On the same counts, the results for `CO[C@H]1/C=C/O[C@@]2(C)Oc3c(C)c(O)c4c(c3C2=O)C2=NC3(CCN(CC(C)C)CC3)NC2=C(NC(=O)/C(C)=C\C=C\[C@H](C)[C@H](O)[C@@H](C)[C@@H](O)[C@@H](C)[C@H](OC(=O)CC(=O)N2CCCCC2)[C@@H]1C)C4=O` [Compound 8] are 0.016 µg/mL (≈ 0.0167 µM), 0.004 µg/mL and 0.5 µg/mL.
On the same counts, the results for `CO[C@H]1/C=C/O[C@@]2(C)Oc3c(C)c(O)c4c(c3C2=O)C2=NC3(CCN(CC(C)C)CC3)NC2=C(NC(=O)/C(C)=C\C=C\[C@H](C)[C@H](O)[C@@H](C)[C@@H](O)[C@@H](C)[C@H](OC(=O)CC(=O)N2CCN(C)CC2)[C@@H]1C)C4=O` [Compound 10] are 0.016 µg/mL (≈ 0.0164 µM), no more than 0.002 µg/mL and 1 µg/mL.
`CO[C@H]1/C=C/O[C@@]2(C)Oc3c(C)c(O)c4c(c3C2=O)C2=NC3(CCN(CC(C)C)CC3)NC2=C(NC(=O)/C(C)=C\C=C\[C@H](C)[C@H](O)[C@@H](C)[C@@H](O)[C@@H](C)[C@H](OC(=O)CC(=O)N2CCN(c3ccccc3S(N)(=O)=O)CC2)[C@@H]1C)C4=O` [Compound 12]: the minimum inhibitory concentration (MIC) was 0.125 µg/mL (≈ 0.112 µM) in experiment [1], 0.03 µg/mL in experiment [2] and 0.5 µg/mL in experiment [3].
Taken in the same sequence, the figures for `CO[C@H]1/C=C/O[C@@]2(C)Oc3c(C)c(O)c4c(c3C2=O)C2=NC3(CCN(CC(C)C)CC3)NC2=C(NC(=O)/C(C)=C\C=C\[C@H](C)[C@H](O)[C@@H](C)[C@@H](O)[C@@H](C)[C@H](OC(=O)CC(=O)N2CCC(N3CCN(C)C(=O)C3)CC2)[C@@H]1C)C4=O` [Compound 15] were 0.016 µg/mL (≈ 0.0149 µM), 0.004 µg/mL and 1 µg/mL.
For the molecule `CCOC(=O)CCNC(=O)CC(=O)O[C@H]1[C@H](C)[C@H](O)[C@H](C)[C@@H](O)[C@@H](C)/C=C/C=C(/C)C(=O)NC2=C3NC4(CCN(CC(C)C)CC4)N=C3c3c(c(O)c(C)c4c3C(=O)[C@@](C)(O/C=C/[C@H](OC)[C@H]1C)O4)C2=O` [Compound 16], the MIC in experiment [1] turned out to be 0.03 µg/mL (≈ 0.0303 µM); in experiment [2], 0.004 µg/mL; in experiment [3], 2 µg/mL.
On to `COC(=O)CNC(=O)CC(=O)O[C@H]1[C@H](C)[C@H](O)[C@H](C)[C@@H](O)[C@@H](C)/C=C/C=C(/C)C(=O)NC2=C3NC4(CCN(CC(C)C)CC4)N=C3c3c(c(O)c(C)c4c3C(=O)[C@@](C)(O/C=C/[C@H](OC)[C@H]1C)O4)C2=O` [Compound 17], for which the MIC in experiment [1] is 0.03 µg/mL (≈ 0.0312 µM); in experiment [2], no more than 0.002 µg/mL; in experiment [3], 2 µg/mL.
For the molecule `CO[C@H]1/C=C/O[C@@]2(C)Oc3c(C)c(O)c4c(c3C2=O)C2=NC3(CCN(CC(C)C)CC3)NC2=C(NC(=O)/C(C)=C\C=C\[C@H](C)[C@H](O)[C@@H](C)[C@@H](O)[C@@H](C)[C@H](OC(=O)CC(=O)Nc2ccc(CN3CCCCC3)cc2)[C@@H]1C)C4=O` [Compound 18], the MIC in experiment [1] is 0.06 µg/mL (≈ 0.0564 µM); in experiment [2] it was no more than 0.002 µg/mL; in experiment [3], 1 µg/mL.
In the case of `CO[C@H]1/C=C/O[C@@]2(C)Oc3c(C)c(O)c4c(c3C2=O)C2=NC3(CCN(CC(C)C)CC3)NC2=C(NC(=O)/C(C)=C\C=C\[C@H](C)[C@H](O)[C@@H](C)[C@@H](O)[C@@H](C)[C@H](OC(=O)CC(=O)NCCN2CCN(C)CC2)[C@@H]1C)C4=O` [Compound 20], the minimal inhibitory concentration (MIC) is 0.03 µg/mL (≈ 0.0295 µM) in experiment [1], no more than 0.002 µg/mL in experiment [2] and 1 µg/mL in experiment [3].
Consider `CO[C@H]1/C=C/O[C@@]2(C)Oc3c(C)c(O)c4c(c3C2=O)C2=NC3(CCN(CC(C)C)CC3)NC2=C(NC(=O)/C(C)=C\C=C\[C@H](C)[C@H](O)[C@@H](C)[C@@H](O)[C@@H](C)[C@H](OC(=O)CC(=O)NCCN2CCOCC2)[C@@H]1C)C4=O` [Compound 23], for which the MIC in experiment [1] was 0.03 µg/mL (≈ 0.0299 µM); in experiment [2] it was no more than 0.002 µg/mL; in experiment [3], 1 µg/mL.
For `CO[C@H]1/C=C/O[C@@]2(C)Oc3c(C)c(O)c4c(c3C2=O)C2=NC3(CCN(CC(C)C)CC3)NC2=C(NC(=O)/C(C)=C\C=C\[C@H](C)[C@H](O)[C@@H](C)[C@@H](O)[C@@H](C)[C@H](OC(=O)CC(=O)OCc2ccccc2)[C@@H]1C)C4=O` [Compound 26], the MIC in experiment [1] worked out at 0.5 µg/mL (≈ 0.51 µM); in experiment [2], 0.03 µg/mL; in experiment [3], 4 µg/mL.
Taken in the same sequence, the figures for `CO[C@H]1/C=C/O[C@@]2(C)Oc3c(C)c(O)c4c(c3C2=O)C2=NC3(CCN(CC(C)C)CC3)NC2=C(NC(=O)/C(C)=C\C=C\[C@H](C)[C@H](O)[C@@H](C)[C@@H](O)[C@@H](C)[C@H](OC(=O)CC(=O)OCC(C)C)[C@@H]1C)C4=O` [Compound 27] were 0.125 µg/mL (≈ 0.132 µM), 0.016 µg/mL and 4 µg/mL.
For `CO[C@H]1/C=C/O[C@@]2(C)Oc3c(C)c(O)c4c(c3C2=O)C2=NC3(CCN(CC(C)C)CC3)NC2=C(NC(=O)/C(C)=C\C=C\[C@H](C)[C@H](O)[C@@H](C)[C@@H](O)[C@@H](C)[C@H](OC(=O)CC(=O)NCCCN(C)C)[C@@H]1C)C4=O` [Compound 29], the MIC in experiment [1] is 0.03 µg/mL (≈ 0.0308 µM); in experiment [2], no more than 0.002 µg/mL; in experiment [3], 1 µg/mL.
For the molecule `CO[C@H]1/C=C/O[C@@]2(C)Oc3c(C)c(O)c4c(c3C2=O)C2=NC3(CCN(CC(C)C)CC3)NC2=C(NC(=O)/C(C)=C\C=C\[C@H](C)[C@H](O)[C@@H](C)[C@@H](O)[C@@H](C)[C@H](OC(=O)CC(=O)NCCN(C)C)[C@@H]1C)C4=O` [Compound 30], the MIC in experiment [1] is 0.03 µg/mL (≈ 0.0312 µM); in experiment [2], no more than 0.002 µg/mL; in experiment [3], 1 µg/mL.
As to `CO[C@H]1/C=C/O[C@@]2(C)Oc3c(C)c(O)c4c(c3C2=O)C2=NC3(CCN(CC(C)C)CC3)NC2=C(NC(=O)/C(C)=C\C=C\[C@H](C)[C@H](O)[C@@H](C)[C@@H](O)[C@@H](C)[C@H](OC(=O)CC(=O)OCCc2ccccc2)[C@@H]1C)C4=O` [Compound 31], the MIC in experiment [1] came out at 1 µg/mL (≈ 1 µM); in experiment [2], 0.125 µg/mL; in experiment [3], 4 µg/mL.
As for `COCCCNC(=O)CC(=O)O[C@H]1[C@H](C)[C@H](O)[C@H](C)[C@@H](O)[C@@H](C)/C=C/C=C(/C)C(=O)NC2=C3NC4(CCN(CC(C)C)CC4)N=C3c3c(c(O)c(C)c4c3C(=O)[C@@](C)(O/C=C/[C@H](OC)[C@H]1C)O4)C2=O` [Compound 34], the MIC is 0.016 µg/mL (≈ 0.0166 µM) in experiment [1], no more than 0.002 µg/mL in experiment [2] and 1 µg/mL in experiment [3].
